Measurements taken from PMC4154947, “Polyisoprenylated methylated protein methyl esterase as a putative drug target for androgen-insensitive prostate cancer” (ecancermedicalscience, 2014).

Tests used:
[1] = biological target: T1, Polyisoprenylated methylated protein methyl esterase (PMPMEase; human carboxylesterase 1, hCE1) (Homo sapiens, UniProt P23141); test: HPLC-UV detection of substrate hydrolysis by prostate cell lysates; type: cell-based
T1 construct: gene CES1
T1 sequence (P23141 18-567): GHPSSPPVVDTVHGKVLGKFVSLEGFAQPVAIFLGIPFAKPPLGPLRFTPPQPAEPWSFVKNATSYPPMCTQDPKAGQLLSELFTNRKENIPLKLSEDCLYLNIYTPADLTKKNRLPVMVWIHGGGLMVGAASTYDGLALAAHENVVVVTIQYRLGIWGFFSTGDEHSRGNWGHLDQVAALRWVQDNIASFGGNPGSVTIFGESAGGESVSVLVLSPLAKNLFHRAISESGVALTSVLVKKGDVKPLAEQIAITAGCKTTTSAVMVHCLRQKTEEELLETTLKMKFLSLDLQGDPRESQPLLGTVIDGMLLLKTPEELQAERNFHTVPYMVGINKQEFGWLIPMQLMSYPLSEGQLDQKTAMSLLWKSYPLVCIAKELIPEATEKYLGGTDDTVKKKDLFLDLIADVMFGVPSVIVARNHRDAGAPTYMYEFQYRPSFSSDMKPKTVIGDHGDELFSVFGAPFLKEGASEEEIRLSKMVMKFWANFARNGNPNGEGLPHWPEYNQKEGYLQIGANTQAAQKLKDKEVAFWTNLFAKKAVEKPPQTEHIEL

[2] = biological target: T1, Polyisoprenylated methylated protein methyl esterase (PMPMEase; human carboxylesterase 1, hCE1); test: HPLC assay of RD-PNB hydrolysis in prostate cancer cell lysates (PC-3 value); type: biochemical

## COC(=O)[C@H](CSC/C=C(\C)CC/C=C(\C)CCC=C(C)C)NC(=O)c1ccc([N+](=O)[O-])cc1 [RD-PNB, N-(4-nitrobenzoyl)-S-trans, trans-farnesyl-L-cysteine methyl ester]
[1]
  HPLC-UV detection of substrate hydrolysis by prostate cell lysates: Incubation of the specific PMPMEase substrate, RD-PNB, with lysates from the respective cell lines resulted in the hydrolysis

## CC(C)=CCC/C(C)=C/CC/C(C)=C/CSCCS(=O)(=O)F [L-28, 2-trans, trans-farnesylthioethanesulfonyl fluoride]
[2]
  IC50: 3 µM
